Test system: osteoclastogenesis of bone marrow-derived monocyte/macrophage precursor cells (BMMs)
Assay: RANKL-induced osteoclast differentiation of BMMs
Assay type: cell-based, mouse (C57BL/6)
Conditions: 10 μM, late stage

C[S+]([O-])c1ccc(-c2nc(-c3ccncc3)c(-c3ccc(F)cc3)[nH]2)cc1 (stereo not shown) [SB203580]
effect of p38 inhibitor on osteoclastogenesis: also inhibited osteoclastogenesis

Source: PMC12015293 (Communications Biology, 2025)
